The results in this text go back to patent publication US10596164B2, “Anti-clostridium compounds” (Nederlandse Organisatie voor …, priority 2014, dated 2020).

In assay [1] the test system is C. difficile ATCC 43599 vegetative cells. Nature of the assay: MIC test with asymmetrical compounds on C. difficile vegetative cells. Format: cell-based, Clostridium difficile. As to conditions: for MIC Veg. cells: Table 3; for MIC: Clostridioides difficile. On the procedure:
(§1) Growth inhibition experiments were performed according to the following protocol: […] Microtiter plate wells were filled with 495 microliter of this suspension to which 5 microliter of selected compounds dissolved in DMSO was added (final concentration of each compound was 10 microgram per ml). This was all performed in an anaerobic cabinet. After filling the microtiter plate was sealed and incubated for 22 hours at 37° C. Inhibiting compounds were selected by visually determining growth inhibition. According to the same protocol as in Example 3 asymmetrical compounds were tested on their inhibitory effect of C. difficile, but also on other bacterial species, such as S. aureus and B. cereus. In the below tables the compounds and the MIC values that have been found for the various micro-organisms are listed. In the tests described in Table 4 and 5 the medium indicated as 'flora' is the SIEM medium described in […], Schols H A, Nauta A, Schoterman […]. High-throughput analysis of the impact of antibiotics on the human intestinal microbiota composition.

In assay [2] the test system is C. difficile ATCC 43599 spores. Kind of assay: MIC test with asymmetrical compounds on C. difficile spores. Format: cell-based, Clostridium difficile. As to conditions: for MIC: Clostridioides difficile; for MIC spores: Table 3. As to the method: as §1
Assay [3] deals with Staphylococcus aureus ATCC 6538. Kind of assay: MIC test with asymmetrical compounds on S. aureus. Format: cell-based. The settings on record: ATCC6538, Table 5, read-out: MIC S. aureus ATCC 6538. On the procedure:
as §1

For assay [4], the system named is Bacillus cereus ATCC 11778. Kind of assay: MIC test with asymmetrical compounds on B. cereus. As to conditions: ATCC11778, Table 5, read-out: MIC B. cereus ATCC 11778. Format: cell-based. As to the method: as §1
The mark [5] stands for this setting: vegetative cells, tested concentrations 10 μg/ml-0.003 μg/ml if not indicated otherwise.
The mark [6] stands for this setting: Table 4, SAB model medium, tested concentrations 1.2 μg/ml-0.03 μg/ml if not indicated otherwise.
The mark [7] stands for this setting: Table 4, flora (SIEM) medium, tested concentrations 1.2 μg/ml-0.03 μg/ml if not indicated otherwise.
[8] abbreviates: ATCC43599, Table 4, flora (SIEM) medium, tested concentrations 1.2 μg/ml-0.03 μg/ml if not indicated otherwise, read-out: MIC spores flora.
Where [9] appears, read: spores, tested concentrations 10 μg/ml-0.003 μg/ml if not indicated otherwise.
The mark [10] stands for this setting: ATCC43599, 22 h, Table 4, SAB model medium, tested concentrations 1.2 μg/ml-0.03 μg/ml if not indicated otherwise, read-out: MIC veg. cells SAB model medium.
The mark [11] stands for this setting: ATCC43599, Table 3, vegetative cells, tested concentrations 10 μg/ml-0.003 μg/ml if not indicated otherwise, read-out: MIC Veg. cells.
Setting [12] is: ATCC43599, Table 4, flora (SIEM) medium, tested concentrations 1.2 μg/ml-0.03 μg/ml if not indicated otherwise, read-out: MIC veg. cells flora.
Where [13] appears, read: ATCC43599, 22 h, Table 4, SAB model medium, tested concentrations 1.2 μg/ml-0.03 μg/ml if not indicated otherwise, read-out: MIC spores SAB model medium.
The mark [14] stands for this setting: ATCC43599, Table 3, spores, tested concentrations 10 μg/ml-0.003 μg/ml if not indicated otherwise, read-out: MIC spores.

In general, MIC refers to the lowest concentration that inhibits growth of the organism.

Values after ≈ are worked out from the molar mass of the structure shown. Read-outs that look alike come from different tables or passages of the source. Marks after values point to notes of the source that are not given here.

As for `O=C1NC(=O)c2ccc3c4c(ccc1c24)C(=O)N(c1ccccc1)C3=O` [4456-3445 (6739753)], the “MIC Veg. cells” value in assay [1] (setting [5]) is on record as <0.3* ug/ml. In addition, in assay [1] (setting [6]), the “MIC veg. cells SAB model medium” value was less than 0.3 µg/mL. In assay [1] (setting [7]), the “MIC veg. cells flora” value was in the range of 0.6 to 1.2 µg/mL. The MIC in assay [2] (setting [8]) lay in the range of 0.6 to 1.2 µg/mL (≈ 1.75 to 3.51 µM). The MIC spores in assay [2] (setting [9]) was <0.3* ug/ml. Also, the “MIC spores SAB model medium” value in assay [2] (setting [6]) was less than 0.3 µg/mL.

Consider `O=C1NC(=O)c2ccc3c4c(ccc1c24)C(=O)N(c1cccc(O)c1)C3=O` [20141155PBmol08], for which the MIC is 0.15 to 0.3 µg/mL (≈ 0.419 to 0.837 µM) in assay [1] (setting [10]); 0.07 to 0.15 µg/mL (≈ 0.195 to 0.419 µM) in assay [1] (setting [11]); 0.6 to 1.2 µg/mL (≈ 1.67 to 3.35 µM) in assay [1] (setting [12]); 0.07 to 0.15 µg/mL (≈ 0.195 to 0.419 µM) in assay [2] (setting [13]); 0.03 to 0.07 µg/mL (≈ 0.0837 to 0.195 µM) in assay [2] (setting [14]); 0.6 to 1.2 µg/mL (≈ 1.67 to 3.35 µM) in assay [2] (setting [8]). Moreover, the MIC was greater than 100 µg/mL in assay [3] and 10 µg/mL (≈ 27.9 µM) in assay [4].

Turning to `O=C1NC(=O)c2ccc3c4c(ccc1c24)C(=O)N(c1ccccc1O)C3=O` [20141155PBmol10], the MIC in assay [1] (setting [10]) is 0.3 to 0.6 µg/mL (≈ 0.837 to 1.67 µM); in assay [1] (setting [11]), 0.3 to 0.6 µg/mL (≈ 0.837 to 1.67 µM); in assay [1] (setting [12]), 0.15 to 0.3 µg/mL (≈ 0.419 to 0.837 µM); in assay [2] (setting [13]) it was 0.3 to 0.6 µg/mL (≈ 0.837 to 1.67 µM); in assay [2] (setting [14]) it was 0.15 to 0.3 µg/mL (≈ 0.419 to 0.837 µM); in assay [2] (setting [8]) it was greater than 1.2 µg/mL. The MIC turned out to be 40 µg/mL (≈ 112 µM) in assay [3] and 4 µg/mL (≈ 11.2 µM) in assay [4].

For `O=C1NC(=O)c2ccc3c4c(ccc1c24)C(=O)N(Cc1cccnc1)C3=O` [20141155PBmol13], the MIC in assay [3] and in assay [4] was greater than 100 µg/mL each time.

`CC(=O)c1cccc(N2C(=O)c3ccc4c5c(ccc(c35)C2=O)C(=O)NC4=O)c1` [20141155PBmol17]: the MIC in assay [1] (setting [10]) is 0.03 to 0.07 µg/mL (≈ 0.0781 to 0.182 µM); in assay [1] (setting [11]), 0.01 to 0.03 µg/mL (≈ 0.026 to 0.0781 µM); in assay [1] (setting [12]), 0.3 to 0.6 µg/mL (≈ 0.781 to 1.56 µM); in assay [2] (setting [13]), 0.03 to 0.07 µg/mL (≈ 0.0781 to 0.182 µM); in assay [2] (setting [14]), 0.01 to 0.03 µg/mL (≈ 0.026 to 0.0781 µM); in assay [2] (setting [8]), greater than 1.2 µg/mL. Besides, the MIC was greater than 100 µg/mL in assay [3] and 4 µg/mL (≈ 10.4 µM) in assay [4].

In the case of `O=C1NC(=O)c2ccc3c4c(ccc1c24)C(=O)N(c1ccccn1)C3=O` [20141155PBmol18], the MIC in assay [1] (setting [10]) is 0.07 to 0.15 µg/mL (≈ 0.204 to 0.437 µM); in assay [1] (setting [11]), 0.07 to 0.15 µg/mL (≈ 0.204 to 0.437 µM); in assay [1] (setting [12]) it was 0.15 to 0.3 µg/mL (≈ 0.437 to 0.874 µM); in assay [2] (setting [13]) it was 0.07 to 0.15 µg/mL (≈ 0.204 to 0.437 µM); in assay [2] (setting [14]), 0.07 to 0.15 µg/mL (≈ 0.204 to 0.437 µM); in assay [2] (setting [8]), 0.3 to 0.6 µg/mL (≈ 0.874 to 1.75 µM). Also, the MIC in assay [3] is 40 µg/mL (≈ 117 µM); in assay [4] it was 4 µg/mL (≈ 11.7 µM).

As for `O=C1NC(=O)c2ccc3c4c(ccc1c24)C(=O)N(c1ccccc1)C3=O` [20141155PBmol19], in assay [1] (setting [5]), the “MIC Veg. cells” value was in the range of 0.01 to 0.03 µg/mL. Further, in assay [1] (setting [6]), the “MIC veg. cells SAB model medium” value was less than 0.03 µg/mL. Further, the “MIC veg. cells flora” value in assay [1] (setting [7]) is 0.15 to 0.3 µg/mL. This compound gave an MIC spores in assay [2] (setting [9]) of 0.007 to 0.01 µg/mL. In assay [2] (setting [6]), the “MIC spores SAB model medium” value was less than 0.03 µg/mL. Besides, the minimum inhibitory concentration (MIC) in assay [3] and in assay [4] was greater than 100 µg/mL throughout.

Turning to `O=C1NC(=O)c2ccc3c4c(ccc1c24)C(=O)N(c1ccncc1)C3=O` [20141155PBmol20], the MIC in assay [3] and in assay [4] was greater than 100 µg/mL each time.

For `CC(=O)OCCN1C(=O)c2ccc3c4c(ccc(c24)C1=O)C(=O)NC3=O` [20141155PBmol21], the MIC was 0.03 to 0.07 µg/mL (≈ 0.0852 to 0.199 µM) in assay [1] (setting [11]); 0.15 to 0.3 µg/mL (≈ 0.426 to 0.852 µM) in assay [1] (setting [12]); 0.03 to 0.07 µg/mL (≈ 0.0852 to 0.199 µM) in assay [2] (setting [13]); 0.01 to 0.03 µg/mL (≈ 0.0284 to 0.0852 µM) in assay [2] (setting [14]); 0.3 to 0.6 µg/mL (≈ 0.852 to 1.7 µM) in assay [2] (setting [8]); greater than 100 µg/mL in assay [3]. The MIC in assay [4] came out at 40 µg/mL (≈ 114 µM).
